Measurements from US20260224756A1, “Methods Of Cellular Imaging And Inorganic Nanoimaging Agents For Same” (Cornell University, priority 2023, published 2026).
“Also recorded” adds a separate entry of the source.

What was measured:
Type in all cases: in vivo, mouse
osteocytes [1] = experiment: Endocytosis Inhibition Experiment: Dyngo4a or MβCD pre-incubation before C'Dot injection and clearance imaging; conditions: for changes in uptake and retention of C'Dots into osteocytes (FIG. 17): RGD and PEG C'Dots; for number of cells visualized and quantified at the initial imaging timepoint compared to untreated control: RGD-C'Dots, 30 minute preincubation of drug
Method: C'Dot Injection and Incubation: Mice were anesthetized with 2-3% isoflurane mixed with medical grade air in an induction chamber for 3 minutes prior to injection. During injection, mice were kept under 2% isoflurane with a nose cone. A 10 μL subcutaneous injection of 10 μM C'Dots was then administered over the third metatarsal (MT3). C'Dots were incubated for 1 hour prior to MT3 isolation (n=4-5/group/sex). Mice were allowed normal cage activity during their incubation time, and were re-anesthetized immediately before MT3 isolation.
C'Dot Imaging: C'Dot fluorescent signal inside the MT3 was visualized with multiphoton microscopy (MPM) (Bergamo II, Thorlabs) as previously described (Matthews 2023). Briefly, a 20× immersion objective (XLUMPLFLN, Olympus), 1090 nm wavelength excitation, and a >647 nm longpass filter acquisition were used for Cy5 encapsulated C'Dots. Images were captured at 1024×1024 pixel density and 0.588 μm pixel resolution. For the C'Dot clearance study, a 35 μm z-stack was taken for each mouse, starting 20 μm beneath the bone surface, with 0.3 μm steps between each slice and 7 frame averaging per slice. These z-stacks were taken every 15 minutes for almost 3 hours after the initial 1 hour incubation.
C'Dot Image Analysis: Z-stacks were analyzed in ImageJ (NIH) as previously described (Matthews 2023). Briefly, a macro was created to interpolate the regions of interest across the z-stack as well as filter the images. Then 3D segmentation was run, creating objects for all cell volumes over a threshold intensity. The lower bound for threshold intensity was established as the mean plus 3× standard deviation of background fluorescence. Segmented objects were then filtered by surface area (>1000 pixels) to ensure only full cell volumes were counted, and mean intensity for each object was quantified using the 3D manager tool. Intensities were normalized to background within each z-stack.
Endocytosis Inhibition Experiment: The small molecule Dyngo4a was used as a potent Dynasore analogue to evaluate the impact of dynamin-mediated endocytosis inhibition. A pre-incubation of Dyngo4a (10 μL, 30 μM) was subcutaneously injected above the MT3 30 minutes prior to C'Dot injection and subsequent imaging. Dyngo4a was diluted from a stock solution in DMSO to the working concentration in 1×PBS. Dyngo4a was kept at […] and was defrosted prior to use. Methyl-β-cyclodextrin (MβCD) was used as a depletor of plasma membrane cholesterol to evaluate the impact of cholesterol-mediated, lipid raft-based endocytosis inhibition. A pre-incubation of MβCD (10 μL, 10 mM) was subcutaneously injected 30 minutes before C'Dot injection. MβCD was diluted from a powder in 1×PBS. MβCD was kept at 4 C and warmed to room temperature prior to use. Both drugs were tested across all groups: male and female, PEG- and RGD-C'Dots (n=4-5/group/sex).
Statistical Analyses: Clearance study analysis was done using a student's t-test, 2-way ANOVAs, and regression analyses, including non-linear (One Phase Decay) and linear. Analyses were performed in GraphPad Prism version 9.0 for Mac OS X (GraphPad Software).
METHODS: Silica core poly(ethylene glycol) shell (core-shell) nanoparticles covalently encapsulating Cy5 dye (PE G-C'Dots) were created using a modified Stober condensation in water. RGD-C'Dots were created by surface functionalizing C'Dot surface with amino acid motifs that bind to the extracellular RGD domain of integrin proteins. Skeletally mature C57BL/6J mice age 16-18 weeks were used for these studies (n=4-5/group/sex). C'Dot Injections: Under inhaled isoflurane anesthesia, PEG- or RGD-C'Dots were injected subcutaneously above the third metatarsal (MT3) in the mouse hind paw at a concentration of 10 μM (FIG. 9). C'Dots were incubated for 45 minutes with mice allowed normal cage activity. […]

osteocytes [2] = experiment: Quantification of C'Dot Subcellular Localization within osteocyte cell bodies
Method: Quantification of C'Dot Subcellular Localization: Individual frames from z-stacks taken after a 45 minute C'Dot incubation were analyzed for subcellular localization within osteocytes under different study conditions. Filtering with a gaussian blur was performed prior to thresholding of signal and particle analysis to identify cellular regions of interest (ROIs). These ROIs were overlayed onto the original image. Cells with distinct subcellular localization of C'Dots were counted as a percentage of total cells. Other cells had saturated or non-distinct signal. Cells with C'Dot signal in with a rim phenotype were also quantified by-eye. Two blinded individuals quantified the images and averaged consensus data was used in the final results.
METHODS: Silica core poly(ethylene glycol) shell (core-shell) nanoparticles covalently encapsulating Cy5 dye (PE G-C'Dots) were created using a modified Stober condensation in water. RGD-C'Dots were created by surface functionalizing C'Dot surface with amino acid motifs that bind to the extracellular RGD domain of integrin proteins. Skeletally mature C57BL/6J mice age 16-18 weeks were used for these studies (n=4-5/group/sex). C'Dot Injections: Under inhaled isoflurane anesthesia, PEG- or RGD-C'Dots were injected subcutaneously above the third metatarsal (MT3) in the mouse hind paw at a concentration of 10 μM (FIG. 9). C'Dots were incubated for 45 minutes with mice allowed normal cage activity. Pre-incubation with Dyngo-4a (Abcam) or Methyl-β-cyclodextrin (Sigma Aldrich) for 30 minutes prior to C'Dot injection was used to inhibit dynamin activity or cholesterol lipid raft formation in treated groups. Imaging: After incubation, the MT3 was surgically isolated and stabilized using a metal 3-pin system in re-anesthetized mice'. […] Image Quantification: Mean intensity and cell count of the C'Dot tagged osteocytes were quantified in ImageJ (NIH) using 3D segmentation and were normalized to background intensity. Subcellular localization of C'Dots was quantified by eye from a single frame of the first z-stack of each clearance experiment. […]

osteocytes [3] = experiment: Combined acute and extended C'Dot clearance from osteocytes in non-drugged and drugged groups; conditions: for impact on combined acute and extended C'Dot clearance (FIG. 18): male mice; for impact on combined acute and extended C'Dot clearance (FIG. 19): male mice (so in the source)
Method: Osteocyte C'Dot Endocytosis and Metabolism: C'Dots and their rapid uptake and clearance from osteocytes was used to study endocytosis in living bone tissue. In endocytosis experiments, different drugs are preincubated in the foot (injected in the same manner) prior to C'Dot application and incubation. Drugs to target different types of endocytic pathways, including non-receptor mediated endocytosis and clathrin mediated endocytosis, were used. The same clearance imaging was performed to see how the drugs impact the cellular uptake and retention of the nanoparticles over time.
Additionally, this experiment was performed again with a short, 5 minute incubation and more rapid imaging to see what the acute impacts of the drugs were on C'Dot uptake.

Molecule | change of PEG-C'Dot clearance from untreated control (osteocytes [1]; PEG-C'Dots, males and females, Dyngo4a preincubation) | changes in uptake and retention of C'Dots into osteocytes (FIG. 17) (osteocytes [1]) | RGD-C'Dot signal at the end of the imaging experiment (osteocytes [1]; female mice, Dyngo4a preincubation) | number of cells visualized and quantified at the initial imaging timepoint compared to untreated control (osteocytes [1]; female mice) | RGD C'Dot signal intensity and retention compared to untreated control (osteocytes [1]; male mice, Dyngo4a pre-incubation) | RGD-C'Dot signal at the end of the imaging experiment (osteocytes [1]; male mice, Dyngo4a preincubation) | number of cells visualized and quantified at the initial imaging timepoint compared to untreated control (osteocytes [1]; male mice) | change in cells with discrete localization of RGD C'Dot signal after drug pre-incubation (osteocytes [2]; females, pre-incubation with drug) | cells with discrete localization of RGD C'Dot signal after drug pre-incubation (osteocytes [2]; males, pre-incubation with drug) | impact on combined acute and extended C'Dot clearance (FIG. 18) (osteocytes [3]) | impact on combined acute and extended C'Dot clearance (FIG. 19) (osteocytes [3]) | RGD C'Dot signal compared to untreated control (osteocytes [1]; female group, MβCD pre-incubation) | PEG C'Dot signal compared to untreated control (osteocytes [1]; male and female PEG C'Dot groups, MβCD pre-incubation) | RGD C'Dot signal compared to untreated control (osteocytes [1]; male group, MβCD pre-incubation) | RGD C'Dot signal compared to untreated control (osteocytes [1]; male group, MβCD pre-incubation, listed as M (3CD)) | change in percentage of cells with subcellular localization after drug pre-incubation (osteocytes [2]; any group)
O=C(N/N=C/c1cc(O)c(O)cc1O)c1cc2ccccc2cc1O [Dyngo4a] | neither males or females having significant change | significant changes in uptake and retention | near zero by the end of the experiment | no statistically significant impact | significantly increased | maintained until the end of the imaging experiment | significantly higher | non-significant decrease; also recorded: no statistically significant impact | 25% | has an impact only on the RGD C'Dots | does not have an impact on either C'Dot type |  |  |  |  | 
Methyl-β-cyclodextrin [MβCD] |  | significant changes in uptake and retention |  |  |  |  |  |  |  | has an impact on both C'Dot types | has an impact on both C'Dot types | significant increase | only males retained a significant increase in signal | significant increase | no effect | did not significantly change
